The text below walks through data of patent US20250339374A1, “BONDED MICROPARTICULATES PREPARATION AND APPLICATIONS THEREOF” (Venkor Corporation, priority 2022, published 2025).

The conditions of data set [1]: in water; description of the solid particulate material in the composition table; cited from earlier work.
Data set [2] can be described thus: Sieve analysis (particle size) of solid particulate material and BMPX, USP <786>. The note with it: solid particulate material; for Particle size: description in composition table. The data set is classed as physicochemical. The text has this: For example, to prepare tablets, certain excipients such as disintegrants, lubricants, glidants etc. may be added to the bonded microparticulates to further facilitate forming the tablet.

Data set [3] is described as follows: Tapped density, USP <616>. The data set is classed as physicochemical. The conditions noted are these: solid particulate material, description in composition table; equals tapped density of Active. As for the experimental part:
In addition to screen analysis, the tap density and the bulk density of the bonded microparticulates and solid particulate material were determined.

A short description of data set [4]: Solubility in water of solid particulate material (descriptive). The data set is classed as physicochemical. The protocol:
In some embodiments, the solid particulate starting material is hydrophilic or hydrophobic or lipophilic in character. Solubility of drugs is measured by the amount of solvent needed to dissolve one part of the drug at a specific temperature. For example, a drug that is very soluble needs less than one part of solvent to dissolve one part of the drug. A drug that is considered freely soluble needs 1 to 10 parts of solvent, one that is soluble needs 10 to 30 parts of solvent, one that sparingly soluble need 30 to 100 parts of solvent, one that is slightly soluble needs 100-1,000 parts and one that is practically insoluble or insoluble needs more than 10,000 parts, per part of solute.

Setting [5] is: description in composition table.

Read-outs that look alike come from different tables or passages of the source.

For `CCOC(=O)C1=C(COCCN)NC(C)=C(C(=O)OC)C1c1ccccc1Cl` (centres unmarked) [Amlodipine Besylate], the Solubility result in data set [1] is listed as “Solubility- insoluble in water”.

With `O=C([O-])[O-].[Ca+2]` [Calcium Carbonate], the “retain on 60mesh” value in data set [2] (60 mesh) is on record as at least 90% retain on 60mesh. Also, the Density entry in data set [3] is reported as “Density -1.2(High Density)”.

As for `COc1ccccc1OCC(O)CO` (centres unmarked) [Guaifenesin], the Solubility result in data set [1] is reported as “Solubility- soluble in water”.

As for `CC(C)Cc1ccc(C(C)C(=O)O)cc1` (centres unmarked) [Ibuprofen], in data set [1], the Solubility entry was “Solubility- in soluble in water”.

On to `OC[C@@H](O)[C@@H](O)[C@H](O)[C@H](O)CO` [Mannitol], for which, in data set [4] (in water), the Solubility result was “Solubility- insoluble in water”.

Regarding `O=C(O)c1cccnc1` [Niacin], in data set [1], the Solubility result is “Solubility- soluble in water”.

Regarding `O=C([O-])O.[Na+]` [Sodium Bicarbonate, reference compound], the “retain on 200#” value in data set [2] (200 mesh) came out at 70.8%. Further, the Particle size in data set [2] turned out to be 74 microns. In data set [3], the Density result is given as “Density -1.19 (High Density)-”.

`OC[C@@H](O)[C@H](O)[C@@H](O)CO` [Xylitol-90]: the Solubility result in data set [4] (in water) was “Solubility- soluble in water”.

Consider `OC[C@@H](O)[C@H](O)[C@@H](O)CO` [Xylitol-300], for which, in data set [4] (setting [5]), the Solubility entry is recorded as “Solubility- soluble in water”. The Particle size result in data set [2] is given as “Particle size- 149 microns”. Further, the Density result in data set [3] is reported as “Density -0.83 (High Density)”.

On to Fructo-Oligosaccharide, for which the Solubility result in data set [4] (setting [5]) is reported as “Solubility- soluble in water”. The Particle size result in data set [2] was “Particle size- 149 microns”. Moreover, in data set [3], the Density result is “Density -0.75 (High Density)”.

For Sugar powder, the Solubility result in data set [4] (in water) is “Solubility- soluble in water”.

Take Zinc Gluconate: the Particle size result in data set [2] is “Particle size- 177 microns”. Besides, the Density result in data set [3] is “Density- 0.6(Medium density)”.
